Where “and” joins values, the source holds several entries; their conditions need not be identical. Equal values may be shown once.
Tests used:
[1] = system: MCF-7 (human breast cancer cell line); assay: MTT anti-proliferative assay, MCF-7; type: cell-based; settings: MCF7, MCF-7, mean of at least three experiments, read-out: Cytotoxicity IC50 MCF-7
Experimental: (§1) Sorafenib was used as a reference drug.
(§2) Anti-proliferative activity activities were tested using MTT assay as described in Supplementary Materials. […]
(§3) S2.1. In vitro anti-proliferative activities
(§4) The in vitro antiproliferative activities of all the synthesized compounds against three human tumor cell lines namely, MCF-7 (human breast cancer cell line), HepG2 (human liver […]
(§5) in the literature, using MTT assay protocol. Sorafenib was used in this test as a positive control.
(§6) The anti-proliferative activity was assessed quantitatively as follows.
(§7) Human cancer cell lines were seeded in 96-well plates at a density of 3-8 × 10^3 cells/well.
(§8) Next, the cells were incubated for 12 h in a 5% CO2 incubator at 37 °C. Then, for each well, the growth medium was exchanged with 0.1 ml of fresh medium containing graded concentrations of the test compounds or equal DMSO. Then 10 μl MTT solution ([…]) was added to each well, and the cells were incubated for additional 4 h. The crystals of MTT-formazan were dissolved in 100 μl of DMSO; the absorbance of each well was measured at 490 nm using an automatic ELISA reader system (TECAN, CHE). The IC50 values were calculated using the nonlinear regression fitting models (Graph Pad, Prism Version 5). The data represented the mean of three independent experiments in triplicate and were expressed as means ± SD. The IC50 value was […]
(§9) defined as the concentration at which 50% of the cells could survive. […]

[2] = system: HepG2 (human liver carcinoma cell line); assay: MTT anti-proliferative assay, HepG2; type: cell-based; settings: HepG2, mean of at least three experiments, read-out: Cytotoxicity IC50 HepG-2
Experimental: as §1, §2, §3, §4, §5, §6, §7, §8, §9

[3] = system: colorectal carcinoma (HCT-116); assay: MTT anti-proliferative assay, HCT-116; type: cell-based; settings: Homo sapiens, HCT-116, read-out: Cytotoxicity IC50 HCT-116
Experimental: as §1, §2, §3, §4, §5, §6, §7, §8, §9

HDAC1 = HDAC1 (Homo sapiens, UniProt Q13547); assay: In vitro HDAC1 inhibitory assay; type: biochemical
HDAC4 = HDAC4 (Homo sapiens, UniProt P56524); assay: In vitro HDAC4 inhibitory assay; type: biochemical
Chain of HDAC4 (P56524 whole entry): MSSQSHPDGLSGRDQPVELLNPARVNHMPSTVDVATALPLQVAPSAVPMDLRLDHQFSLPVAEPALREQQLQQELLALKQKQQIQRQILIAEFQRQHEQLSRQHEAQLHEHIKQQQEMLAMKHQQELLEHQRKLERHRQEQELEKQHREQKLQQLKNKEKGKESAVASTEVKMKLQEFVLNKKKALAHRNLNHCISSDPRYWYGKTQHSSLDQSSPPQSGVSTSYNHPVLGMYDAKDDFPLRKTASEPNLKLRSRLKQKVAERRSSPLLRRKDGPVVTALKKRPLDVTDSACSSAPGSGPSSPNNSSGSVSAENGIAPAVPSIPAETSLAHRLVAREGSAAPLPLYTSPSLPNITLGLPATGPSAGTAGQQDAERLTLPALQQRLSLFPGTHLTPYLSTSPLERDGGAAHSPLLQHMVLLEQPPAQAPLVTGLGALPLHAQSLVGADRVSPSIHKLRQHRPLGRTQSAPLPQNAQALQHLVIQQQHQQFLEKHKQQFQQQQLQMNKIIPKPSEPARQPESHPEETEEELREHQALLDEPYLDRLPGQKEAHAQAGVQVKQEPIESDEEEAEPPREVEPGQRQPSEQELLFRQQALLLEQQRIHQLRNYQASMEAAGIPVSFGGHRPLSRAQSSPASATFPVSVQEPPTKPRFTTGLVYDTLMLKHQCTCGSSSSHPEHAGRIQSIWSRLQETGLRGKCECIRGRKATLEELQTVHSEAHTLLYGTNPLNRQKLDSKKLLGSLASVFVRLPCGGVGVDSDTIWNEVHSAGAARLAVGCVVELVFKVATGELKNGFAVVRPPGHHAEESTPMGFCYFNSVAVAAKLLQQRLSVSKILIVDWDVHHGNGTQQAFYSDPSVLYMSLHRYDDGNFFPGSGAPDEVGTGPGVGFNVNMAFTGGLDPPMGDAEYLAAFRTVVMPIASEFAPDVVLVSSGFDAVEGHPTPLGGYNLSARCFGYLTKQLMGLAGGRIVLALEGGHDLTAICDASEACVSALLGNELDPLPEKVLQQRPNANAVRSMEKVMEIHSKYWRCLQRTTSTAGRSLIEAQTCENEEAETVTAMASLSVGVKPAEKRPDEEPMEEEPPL

Chain of HDAC1 (Q13547 whole entry): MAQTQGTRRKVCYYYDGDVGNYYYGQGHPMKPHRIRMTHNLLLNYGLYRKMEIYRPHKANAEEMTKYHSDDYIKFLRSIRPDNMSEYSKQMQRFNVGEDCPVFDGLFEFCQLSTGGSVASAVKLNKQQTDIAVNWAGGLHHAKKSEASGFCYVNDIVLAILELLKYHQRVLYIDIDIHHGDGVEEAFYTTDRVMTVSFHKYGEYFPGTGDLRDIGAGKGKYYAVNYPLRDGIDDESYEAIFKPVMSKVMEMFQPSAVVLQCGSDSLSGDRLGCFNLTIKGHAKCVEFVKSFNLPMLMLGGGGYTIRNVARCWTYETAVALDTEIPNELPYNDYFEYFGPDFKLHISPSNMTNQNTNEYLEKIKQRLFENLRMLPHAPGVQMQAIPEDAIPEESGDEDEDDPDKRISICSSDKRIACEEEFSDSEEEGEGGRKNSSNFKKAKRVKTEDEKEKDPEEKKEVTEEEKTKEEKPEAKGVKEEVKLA

## CCn1c(N)c(C(c2cccs2)c2c(N)n(CC)c(=S)[nH]c2=O)c(=O)[nH]c1=S [Compound 5g, 5,5′-(Thiophen-2-ylmethylene)bis(6-amino-1-ethyl-2-thioxo-2,3-dihydropyrimidin-4(1H)-one)]
[1]
  IC50: 21 ± 2.2 µM
[2]
  IC50: 33 ± 3.8 µM
[3]
  IC50: 68 ± 1.8 µM
other
  melting point: 271 to 272 °C

## CCCn1c(N)c(C(c2ccc(C)cc2)c2c(N)n(CCC)c(=O)[nH]c2=O)c(=O)[nH]c1=O [Compound 5j, 5,5′-(p-Tolylmethylene)bis(6-amino-1-propylpyrimidine-2,4(1H,3H)-dione)]
[1]
  IC50: 71 ± 2 µM
[2]
  IC50: 38 ± 1.8 µM
[3]
  IC50: 400 ± 2.4 µM
other
  melting point: 286 to 287 °C

## CNC(=O)c1cc(Oc2ccc(NC(=O)Nc3ccc(Cl)c(C(F)(F)F)c3)cc2)ccn1 [Sorafenib, reference compound]
[1]
  IC50: 141 ± 3 µM
[2]
  IC50: 17 ± 2.3 µM
[3]
  IC50: 177 ± 0.9 µM

## CCn1c(=S)[nH]c(=O)c2c(-c3ccc(OC)cc3)c3c(=O)[nH]c(=S)n(CC)c3nc21 [Compound 7b, 1,9-Diethyl-5-(4-methoxyphenyl)-2,8-dithioxo-2,3,8,9-tetrahydropyrido[2,3-d:6,5-d′]dipyrimidine-4,6(1H,7H)-dione]
[1]
  IC50: 871 ± 3.2 µM
[2]
  IC50: 173 ± 4.5 µM
[3]
  IC50: 301 ± 3.4 µM
other
  melting point: 221 °C

## CCCn1c(N)c(C(c2ccccc2)c2c(N)n(CCC)c(=O)[nH]c2=O)c(=O)[nH]c1=O [Compound 5i, 5,5′-(Phenylmethylene)bis(6-amino-1-propylpyrimidine-2,4(1H,3H)-dione)]
[1]
  IC50: 261 ± 2.5 µM
[2]
  IC50: 4 ± 1 µM
[3]
  IC50: 64 ± 2.1 µM
HDAC1
  IC50: 0.342 µM and 0.352 µM
HDAC4
  IC50: 19.5 µM
other
  melting point: 294 to 295 °C

## CCn1c(N)c(C(c2ccc(Cl)cc2Cl)c2c(N)n(CC)c(=S)[nH]c2=O)c(=O)[nH]c1=S [Compound 5d, 5,5′-((2,4-Dichlorophenyl)methylene)bis(6-amino-1-ethyl-2-thioxo-2,3-dihydropyrimidin-4(1H)-one)]
[1]
  IC50: 62 ± 2.1 µM
[2]
  IC50: 40 ± 2.7 µM
[3]
  IC50: 281 ± 2.1 µM
other
  melting point: 272 to 273 °C

## CCCn1c2c(c(=O)[nH]c1=O)C(c1ccc(OC)cc1)c1c(n(CCC)c(=O)[nH]c1=O)N2 [Compound 6c, 5-(4-Methoxyphenyl)-1,9-dipropyl-5,10-dihydropyrido[2,3-d:6,5-d′]dipyrimidine-2,4,6,8(1H,3H,7H,9H)-tetraone]
[1]
  IC50: 435 ± 4.3 µM
[2]
  IC50: 114 ± 2.2 µM
[3]
  IC50: 466 ± 4.6 µM
other
  melting point: 180 to 181 °C

## CCn1c2c(c(=O)[nH]c1=S)C(c1ccccc1)c1c(n(CC)c(=S)[nH]c1=O)N2 [Compound 6a, 1,9-Diethyl-5-phenyl-2,8-dithioxo-2,3,5,8,9,10-hexahydropyrido[2,3-d:6,5-d′]dipyrimidine-4,6(1H,7H)-dione]
[1]
  IC50: 333 ± 2.9 µM
[2]
  IC50: 220 ± 3 µM
[3]
  IC50: 291 ± 3.5 µM
other
  melting point: 255 to 256 °C

## CCCn1c(N)c(Cc2c(N)n(CCC)c(=O)[nH]c2=O)c(=O)[nH]c1=O [Compound 5h, 5,5′-Methylenebis(6-amino-1-propylpyrimidine-2,4(1H,3H)-dione)]
[1]
  IC50: 88 ± 2.5 µM
[2]
  IC50: 52 ± 3.2 µM
[3]
  IC50: 91 ± 1.9 µM

## CCn1c(N)c(C(c2ccc(Cl)cc2)c2c(N)n(CC)c(=S)[nH]c2=O)c(=O)[nH]c1=S [Compound 5c, 5,5′-((4-Chlorophenyl)methylene)bis(6-amino-1-ethyl-2-thioxo-2,3-dihydropyrimidin-4(1H)-one)]
[1]
  IC50: 77 ± 2.3 µM
[2]
  IC50: 89 ± 2.4 µM
[3]
  IC50: 97 ± 1.2 µM
other
  melting point: > 300 °C

## CCn1c(=S)[nH]c(=O)c2c(-c3ccc(Cl)cc3)c3c(=O)[nH]c(=S)n(CC)c3nc21 [Compound 7a, 5-(4-Chlorophenyl)-1,9-diethyl-2,8-dithioxo-2,3,8,9-tetrahydropyrido[2,3-d:6,5-d′]dipyrimidine-4,6(1H,7H)-dione]
[1]
  IC50: 472 ± 3.2 µM
[2]
  IC50: 189 ± 4.8 µM
[3]
  IC50: 361 ± 1.9 µM
other
  melting point: 224 to 225 °C

## CCn1c(N)c(C(c2ccc(OC)cc2)c2c(N)n(CC)c(=S)[nH]c2=O)c(=O)[nH]c1=S [Compound 5e, 5,5′-((4-Methoxyphenyl)methylene)bis(6-amino-1-ethyl-2-thioxo-2,3-dihydropyrimidin-4(1H)-one)]
[1]
  IC50: 60 ± 0.49 µM
[2]
  IC50: 42 ± 2 µM
[3]
  IC50: 90 ± 3 µM
other
  melting point: 260 to 261 °C

## CCn1c(N)c(C(c2ccccc2)c2c(N)n(CC)c(=S)[nH]c2=O)c(=O)[nH]c1=S [Compound 5a, 5,5′-(Phenylmethylene)bis(6-amino-1-ethyl-2-thioxo-2,3-dihydropyrimidin-4(1H)-one)]
[1]
  IC50: 11 ± 1.6 µM
[2]
  IC50: 39 ± 2.5 µM
[3]
  IC50: 88 ± 2.4 µM
HDAC1
  IC50: 3.11 µM
HDAC4
  IC50: 12.2 µM
other
  melting point: > 300 °C

## CCn1c(N)c(C(c2ccc(C)cc2)c2c(N)n(CC)c(=S)[nH]c2=O)c(=O)[nH]c1=S [Compound 5b, 5,5′-(p-Tolylmethylene)bis(6-amino-1-ethyl-2-thioxo-2,3-dihydropyrimidin-4(1H)-one)]
[1]
  IC50: 55 ± 2.8 µM
[2]
  IC50: 51 ± 4 µM
[3]
  IC50: 21 ± 2.4 µM
HDAC1
  IC50: 2.27 µM
HDAC4
  IC50: 18 µM
other
  melting point: 239 to 240 °C

## CCCn1c(N)c(C(c2ccc(OC)cc2)c2c(N)n(CCC)c(=O)[nH]c2=O)c(=O)[nH]c1=O [Compound 5l, 5,5′-((4-Methoxyphenyl)methylene)bis(6-amino-1-propylpyrimidine-2,4(1H,3H)-dione)]
[1]
  IC50: 381 ± 1.5 µM
[2]
  IC50: 31 ± 2 µM
[3]
  IC50: 83 ± 1.9 µM
other
  melting point: 289 to 290 °C

## CCn1c2c(c(=O)[nH]c1=S)C(c1ccc([N+](=O)[O-])cc1)c1c(n(CC)c(=S)[nH]c1=O)N2 [Compound 6b, 1,9-Diethyl-5-(4-nitrophenyl)-2,8-dithioxo-2,3,5,8,9,10-hexahydropyrido[2,3-d:6,5-d′]dipyrimidine-4,6(1H,7H)-dione]
[1]
  IC50: 577 ± 20 µM
[2]
  IC50: 184 ± 3.7 µM
[3]
  IC50: 299 ± 2 µM
other
  melting point: 251 to 252 °C

## CCn1c(=S)[nH]c(=O)c2c(-c3cccs3)c3c(=O)[nH]c(=S)n(CC)c3nc21 [Compound 7c, 1,9-Diethyl-5-(thiophen-2-yl)-2,8-dithioxo-2,3,8,9-tetrahydropyrido[2,3-d:6,5-d′]dipyrimidine-4,6(1H,7H)-dione]
[1]
  IC50: 450 ± 2.2 µM
[2]
  IC50: 221 ± 2.5 µM
[3]
  IC50: 243 ± 2.2 µM
other
  melting point: 216 to 217 °C

## CCCn1c(N)c(C(c2ccc(Cl)cc2Cl)c2c(N)n(CCC)c(=O)[nH]c2=O)c(=O)[nH]c1=O [Compound 5k, 5,5′-((2,4-Dichlorophenyl)methylene)bis(6-amino-1-propylpyrimidine-2,4(1H,3H)-dione)]
[1]
  IC50: 242 ± 2 µM
[2]
  IC50: 5 ± 2 µM
[3]
  IC50: 80 ± 2.6 µM
HDAC1
  IC50: 0.464 µM
HDAC4
  IC50: 13 µM
other
  melting point: 285 to 286 °C

## CCCn1c2c(c(=O)[nH]c1=O)Cc1c(n(CCC)c(=O)[nH]c1=O)N2 [Compound 6d, 1,9-Dipropyl-5,10-dihydropyrido[2,3-d:6,5-d′]dipyrimidine-2,4,6,8 (1H,3H,7H,9H)-tetraone]
[1]
  IC50: 413 ± 1.3 µM
[2]
  IC50: 168 ± 1.5 µM
[3]
  IC50: 361 ± 2 µM

## CCn1c(N)c(C(c2ccc([N+](=O)[O-])cc2)c2c(N)n(CC)c(=S)[nH]c2=O)c(=O)[nH]c1=S [Compound 5f, 5,5′-((4-Nitrophenyl)methylene)bis(6-amino-1-ethyl-2-thioxo-2,3-dihydropyrimidin-4(1H)-one)]
[1]
  IC50: 9.3 ± 3.4 µM
[2]
  IC50: 49 ± 0.17 µM
[3]
  IC50: 71 ± 2.1 µM
HDAC1
  IC50: 4 µM
HDAC4
  IC50: 12.2 µM
other
  melting point: 274 to 275 °C
